From patent publication US20250314636A1, “METHOD OF PREPARING AND EXPANDING A POPULATION OF IMMUNE CELLS FOR CANCER THERAPY, POTENCY ASSAY FOR TUMOR RECOGNITION, BIOLOGICAL VACCINE PREPARATION AND EPITOPETARGET FOR ANTIBODIES” (FUNDAÇÃO D. ANNA DE SOMMER CHAMPALIMAUD E DR. CARLOS MONTEZ …, priority 2022, published 2025)
Read-outs that look alike come from different tables or passages of the source.

Assays:
PANC-1 = test: Cellular recognition assay: allogeneic tumor cell line PANC-1; assay type: cell-based, human; conditions: CD1d restricted IFN-γ production
Experimental: All antibodies are commercially available.
siRNA against MR1 was used to silence MR1 expression using Silencer Select Pre-designed siRNA (Ambion, Thermo Fisher)). A scramble siRNA was used as negative control (Ambion, Thermo Fisher). Briefly, target cells were seeded 24 h before transfection, both siRNAs were used at 10 μM with lipofectamine RNA iMAX diluted in OptiMEM, incubated for 5 minutes, and added on top of the cells. Cells were incubated for 48 h before being used on the respective assays.
Autologous tumor, confirmed by standard histology, was viably snap frozen and then thawed to be used as targets in recognition assays once TIL had been expanded. Small autologous tumor pieces (1 mm^3) from tumor areas that contained tumor cells were tested in duplicates. TIL were incubated with tumor pieces or allogeneic tumor cells in CellGenix GMP DC media supplemented with 10% serum in the presence of IL-2 (50 IU/mL) and IL-15 (10 IU/mL) for testing MAIT—cells. TCR αβ T-cells or TCR γδ cells were tested for autologous or allogeneic tumor recognition using 100 IU IL-2/mL and 100 IU IL-15/mL; or using 100 IU IL-7/mL combined with 100 IU IL-15/mL. […]

TIL [1] = system: TIL
Experimental: TIL were seeded at 10^4/well in medium with 10% human serum added 24 h later and reduced cytokine concentrations (IL-2 at 100 IU/mL, IL-15 at 100 IU/mL). Supernatants were tested for IFN-γ production with the Human IFN-γ ELISA basic kit (HRP) (Mabtech, 3420-1H-6) according to the manufacturer's instructions. The assay can also be performed using IL-7 at 100 IU/mL and 100 IU IL-15/mL).
MHC class I responses were blocked using mAb clone w6/32 (mouse IgG2a) at 10 μg/mL, anti-HLA-DR clone L243 (mouse IgG2a) at 10 μg/mL, anti-HLA-DP clone B7/21 (mouse IgG3) at 10 μg/mL, anti-CD1d clone CD1d42 (mouse IgG1) at 10 μg/mL. Isotype control antibodies included mouse IgG2a and mouse IgG1 at 10 μg/mL. MR1 responses were blocked using the mAb clone 26.5 (mouse IgG2a) at 10 μg/mL. All antibodies are commercially available.

TIL [2] = test: Peptide recognition assay in TIL (IFN-γ ELISA / IL-17 in supernatant, 7 days); assay type: cell-based, human; set-up: IFN-γ production, TIL: unit not given here; conditions: for IFN-γ production, TIL: 10e4 TIL/well co-cultured with the peptide for 7 days, supernatant tested; for Pancreatic TIL D1599 IFN-y / Pancreatic TILD1599 IL 17: Pancreatic TIL D1599; for IFN-γ production (in words): positive controls
Experimental: (§1) Peptides from tumor-associated antigens (TAAs), listed in Table 5 were placed at 1 ug/well in duplicates using anti-CD3 at 30 ng/mL as well as PHA at 5 μg/mL as positive controls.
(§2) The differences in TIL versus PBMCs can also be defined by peptide reactivity. 10e^4 TIL or 10e^4 PBMC/well were co-cultured with the peptides listed in Table 11 below for 7 days and the supernatants were tested for IFN-γ production.

PBMCs = test: Peptide recognition assay in PBMCs (IFN-γ in supernatant, 7 days); assay type: cell-based, human; conditions: for IFN-γ production, PBMCs: 10e4 PBMC/well co-cultured with the peptide for 7 days, supernatant tested; for PBMCs IFN-y: PBMCs harvested same day as skin lesion
Experimental: as §1, §2

[3] = system: Posterior skin lesion T-cells; test: Peptide recognition by T-cells expanded from skin lesions (IFN-γ, 7 days); assay type: cell-based, human; conditions: T-cells expanded from skin lesion of patient with solid cancer
Experimental: as §1

[4] = TIL that reacted against Human U11/U12 snRNP 35 kDa protein (81-90) tailored for HLA-B3501, + anti-ABC
[5] = TIL that reacted against Human U11/U12 snRNP 35 kDa protein (81-90) tailored for HLA-B3501, + anti-DR
[6] = TIL that reacted against Human U11/U12 snRNP 35 kDa protein (81-90) tailored for HLA-B3501, no blocking antibody
[7] = TIL that reacted against SARS-CoV-2 spike (212-220) tailored for HLA-B3501, + anti-ABC
[8] = TIL that reacted against SARS-CoV-2 spike (212-220) tailored for HLA-B3501, + anti-DR
[9] = TIL that reacted against SARS-CoV-2 spike (212-220) tailored for HLA-B3501, no blocking antibody

With `Cc1oncc1C(=O)Nc1ccc(C(F)(F)F)cc1` [Leflunomide] the “PANC-1 recognition by γδ+ TIL after pretreatment of PANC-1 cells” value (PANC-1) was “not changed”.

For `COc1cccc2c1C(=O)c1c(O)c3c(c(O)c1C2=O)C[C@@](O)(C(=O)CO)C[C@@H]3O[C@H]1C[C@H](N)[C@H](O)[C@H](C)O1` [doxorubicin], the “PANC-1 recognition by γδ+ TIL after pretreatment of PANC-1 cells” value (PANC-1) was “not changed”.

LP(V)RDLPQGF was tested, and the “IFN-γ Production” value (TIL [1]; [4]) was 2062.87, the “IL-17 Production” value (TIL [1]; [4]) was 12.68 and the “IFN-γ Production” value (TIL [1]; [5]) was 1974.19. The “IL-17 Production” value (TIL [1]; [5]) was 257.46, the “IFN-γ Production” value (TIL [1]; [6]) was 2611.08 and the “IL-17 Production” value (TIL [1]; [6]) was 238.70. For the same molecule, the “IFN-γ Production” value (TIL [1]; [7]) was 138.58, the “IL-17 Production” value (TIL [1]; [7]) was 0.00 and the “IFN-γ Production” value (TIL [1]; [8]) was 1057.65. For the same molecule, the “IL-17 Production” value (TIL [1]; [8]) was 428.92, the “IFN-γ Production” value (TIL [1]; [9]) was 1457.59 and the “IL-17 Production” value (TIL [1]; [9]) was 462.99.

LP(V)RDLVTGF was tested, and the “IFN-γ Production” value (TIL [1]; [4]) was 1908.56, the “IL-17 Production” value (TIL [1]; [4]) was 81.91 and the “IFN-γ Production” value (TIL [1]; [5]) was 1509.64. For the same molecule, the “IL-17 Production” value (TIL [1]; [5]) was 444.01, the “IFN-γ Production” value (TIL [1]; [6]) was 2444.61 and the “IL-17 Production” value (TIL [1]; [6]) was 330.14. For the same molecule, the “IFN-γ Production” value (TIL [1]; [7]) was 879.62, the “IL-17 Production” value (TIL [1]; [7]) was 0.00 and the “IFN-γ Production” value (TIL [1]; [8]) was 1289.42. For the same molecule, the “IL-17 Production” value (TIL [1]; [8]) was 420.07, the “IFN-γ Production” value (TIL [1]; [9]) was 1230.50 and the “IL-17 Production” value (TIL [1]; [9]) was 372.84.

“OKT3: anti-CD3 directed antibody crosslinking the T-cell receptor, 30 ng/ml from Biolegend or Human Cell [reference compound]” was tested, and the “IFN-γ production, TIL” value (TIL [2]) was 0, the “Pancreatic TIL D1599 IFN-y” value (TIL [2]) was 200 pg/mL and the “Pancreatic TILD1599 IL 17” value (TIL [2]) was 0 pg/mL. For the same molecule, the “IFN-γ production (in words)” value (TIL [2]; TIL D1599) was “Strong IFN-γ production”, the “IFN-γ production, PBMCs” value (PBMCs) was 63 and the “PBMCs IFN-y” value (PBMCs; first PBMCs column) was 0.0 pg/ml/7 days. The “PBMCs IFN-y” value (PBMCs; second PBMCs column) was 0.0 pg/ml/7 days, the “Posterior skin lesion T-cells IFN-y” value [3] was 27.0 pg/ml/7 days and the “IFN-γ Production” value (TIL [1]; [6]) was 3333.24. The “IL-17 Production” value (TIL [1]; [6]) was 417.70, the “IFN-γ Production” value (TIL [1]; [9]) was 2540.06 and the “IL-17 Production” value (TIL [1]; [9]) was 305.99.

In the case of TPLPVTDASSASTGH, the “IFN-γ production, TIL” value (TIL [2]) is reported as 0 and the “IFN-γ production, PBMCs” value (PBMCs) is reported as 0.

TPLPVTDNSSASTGD was tested, and the “IFN-γ production, TIL” value (TIL [2]) was 0 and the “IFN-γ production, PBMCs” value (PBMCs) was 0.

For TPLPVTDTSSASTGD, the “IFN-γ production, TIL” value (TIL [2]) was 0 and the “IFN-γ production, PBMCs” value (PBMCs) was 0.

With TPLPVTDTSSASTGH the “IFN-γ production, TIL” value (TIL [2]) was 0 and the “IFN-γ production, PBMCs” value (PBMCs) was 0.

In the case of TTPLPVTIPSSASSG, the “IFN-γ production, TIL” value (TIL [2]) is reported as 0 and the “IFN-γ production, PBMCs” value (PBMCs) is reported as 0.

With TTPLPVTSPSSASSG the “IFN-γ production, TIL” value (TIL [2]) was 0 and the “IFN-γ production, PBMCs” value (PBMCs) was 0.

For VTDASSASTGH, the “IFN-γ production, TIL” value (TIL [2]) was 0 and the “IFN-γ production, PBMCs” value (PBMCs) was 0.

VTDTSSASTGH was tested, and the “IFN-γ production, TIL” value (TIL [2]) was 0 and the “IFN-γ production, PBMCs” value (PBMCs) was 0.

In the case of WAVRPQDLDTCDPRQ, the “IFN-γ production, TIL” value (TIL [2]) is reported as 0 and the “IFN-γ production, PBMCs” value (PBMCs) is reported as 0.

For YEQLDVLKHKLDELY, the “IFN-γ production, TIL” value (TIL [2]) was 0 and the “IFN-γ production, PBMCs” value (PBMCs) was 0.

With YKLVVVGAAGVGKSALT the “IFN-γ production, TIL” value (TIL [2]) was 0 and the “IFN-γ production, PBMCs” value (PBMCs) was 0.

With YKLVVVGACGVGKSALT the “IFN-γ production, TIL” value (TIL [2]) was 0 and the “IFN-γ production, PBMCs” value (PBMCs) was 0.

In the case of YKLVVVGADGVGKSALT, the “IFN-γ production, TIL” value (TIL [2]) is reported as 0 and the “IFN-γ production, PBMCs” value (PBMCs) is reported as 0.

With YKLVVVGAGGVGKSALT the “IFN-γ production, TIL” value (TIL [2]) was 0 and the “IFN-γ production, PBMCs” value (PBMCs) was 0.

YKLVVVGARGVGKSALT was tested, and the “IFN-γ production, TIL” value (TIL [2]) was 0 and the “IFN-γ production, PBMCs” value (PBMCs) was 0.

YKLVVVGASGVGKSALT was tested, and the “IFN-γ production, TIL” value (TIL [2]) was 0 and the “IFN-γ production, PBMCs” value (PBMCs) was 0.

In the case of YKLVVVGAVGVGKSALT, the “IFN-γ production, TIL” value (TIL [2]) is reported as 0 and the “IFN-γ production, PBMCs” value (PBMCs) is reported as 0.

With “phytohemagglutinin [PHA, reference compound]” the “IFN-γ production, TIL” value (TIL [2]) was 1336, the “Pancreatic TIL D1599 IFN-y” value (TIL [2]) was 417 pg/mL and the “Pancreatic TILD1599 IL 17” value (TIL [2]) was 4 pg/mL. For the same molecule, the “IL-17 production (in words)” value (TIL [2]; positive control, TIL D1599) was “only limited amount of IL-17 production”, the “IFN-γ production (in words)” value (TIL [2]; TIL D1599) was “Strong IFN-γ production” and the “IFN-γ production, PBMCs” value (PBMCs) was 71. For the same molecule, the “PBMCs IFN-y” value (PBMCs; first PBMCs column) was 165.7 pg/ml/7 days, the “PBMCs IFN-y” value (PBMCs; second PBMCs column) was 165.7 pg/ml/7 days and the “Posterior skin lesion T-cells IFN-y” value [3] was 901.0 pg/ml/7 days.
